Experimental data from patent US11072628B2, “Nucleoside analogues for the treatment of parasitic infections” (UNIVERSITEIT GENT, priority 2017, dated 2021).
Where two headings read alike, the source gives them in different places.

What was measured:
T. brucei Squib 427 = assay: In vitro drug susceptibility, T. brucei Squib 427 (resazurin); assay type: cell-based, Trypanosoma brucei brucei
Method: (§1) All trypanosome strains were cultured in the standard HMI-9 medium supplemented with 10% fetal bovine serum (FBS) at 37° C. in a 5% CO2 atmosphere.

[1] = test system: T. b. rhodesiense STIB-900; assay: In vitro drug susceptibility, T. b. rhodesiense STIB-900 (resazurin); assay type: cell-based, Trypanosoma brucei rhodesiense
Method: as §1

[2] = Cytotoxicity against MRC-5 fibroblasts; settings: human, MRC-5 fibroblasts, cytotoxicity
Method: (§2) Cytotoxicity was assayed against MRC-5 fibroblasts. Results are depicted in Tables 4 and 5.

[3] = test system: T. cruzi Tulahuen CL2 β galactosidase strain; assay: T. cruzi Tulahuen CL2 β galactosidase strain on MRC-5SV2 cells (CPRG); assay type: cell-based, Trypanosoma cruzi
Method: All cultures and assays were conducted at 37° C./5% CO2. […] The results were expressed as % reduction in parasite burdens compared to control wells from which an EC50 was calculated.

MRC-5 fibroblasts = assay: in vitro
Method: as §2

[4] = Trypanosoma brucei, read-out: T. brucei brucei EC50, Table 1, average of 2-4 independent determinations
[5] = Trypanosoma brucei, RHODESIENSE, read-out: T. brucei rhod. EC50
[6] = Trypanosoma cruzi, TULAHUEN, MRC-5 SV2, Table 2, average of 2-3 independent replicates
[7] = Table 1, average of 2-4 independent determinations, read-out: T. brucei brucei EC50
[8] = Table 1, average of 2-4 independent determinations, read-out: T. brucei rhod. EC50
[9] = Table 2, average of 2-3 independent replicates

Row | Compound | EC50 (T. brucei Squib 427; [4]) [µM] | EC50 [1, 5] [µM] | EC50 ([2]; MRC-5 EC50, Table 1) [µM] | EC50 ([2]; MRC-5 EC50, Table 2) [µM] | EC50 [3, 6] [µM] | melting point [°C] | other results
1 | Nc1ncnc2c1c(/C=C/c1ccccc1)cn2[C@@H]1O[C@H](CO)C[C@H]1O [FH10660, 4-amino-5-(E-styryl)-N7-(3′-deoxy-β-D-ribfuranosyl)-pyrrolo[2,3-d]pyrimidine] | 1.76 | 0.17 | 49.4 | 49.4 | 6.28 | 170 | –
2 | Nc1ncnc2c1c(-c1cc(Cl)cc(Cl)c1)cn2[C@@H]1O[C@H](CO)[C@@H](O)[C@H]1O [FH8460, 4-amino-5-(3,5-dichlorophenyl)-N7-(β-D-ribofuranosyl)-pyrrolo[2,3-d]pyrimidine] | – | – | – | – | – | 219 | EC50 (T. brucei Squib 427; Trypanosoma brucei, read-out: EC50 against T. brucei): < 10 µM; EC50 (T. brucei Squib 427; Trypanosoma brucei, read-out: T.b. brucei EC50, Table 4, average of 2-6 independent determinations): 8.17 µM; EC50 ([1]; Trypanosoma brucei, RHODESIENSE, read-out: T.b. rhod. EC50): 3.66 µM; EC50 ([2]; MRC-5 EC50, Table 4): > 64 µM; EC50 ([2]; MRC-5 EC50, Table 5): > 64 µM; EC50 ([3]; Trypanosoma cruzi, TULAHUEN, MRC-5 SV2, Table 5, average of 2-4 independent replicates): 1.72 µM
3 | OC[C@@H]1C[C@@H](O)[C@H](n2cc(Br)c3cncnc32)O1 [FH9539, 5-bromo-N7-(3′-deoxy-β-D-ribofuranosyl)-pyrrolo[2,3-d]pyrimidine] | 0.51 | 0.91 | 21 | 21 | 36.8 | 186 | –
4 | Cc1cc(-c2cn([C@@H]3O[C@H](CO)C[C@H]3O)c3ncnc(N)c23)ccc1Cl [FH10648, 4-amino-5-(3-methyl-4-chlorophenyl)-N7-(3′-deoxy-β-D-ribofuranosyl)-pyrrolo[2,3-d]pyrimidine] | 6.4 | 2.09 | 16.7 | 16.7 | 0.21 | 125 | –
5 | C#Cc1cn([C@@H]2O[C@H](CO)C[C@H]2O)c2ncnc(N)c12 [FH8505, 4-amino-5-ethynyl-N7-(3′-deoxy-β-D-ribofuranosyl)-pyrrolo[2,3-d]pyrimidine] | 0.005 | 0.0005 | – | – | 1.66 | 192 | –
6 | Nc1ncnc2c1c(-c1ccc(F)c(F)c1)cn2[C@@H]1O[C@H](CO)C[C@H]1O [FH10682, 4-amino-5-(3,4-difluorophenyl)-N7-(3′-deoxy-β-D-ribofuranosyl)-pyrrolo[2,3-d]pyrimidine] | – | – | – | > 64 | 0.33 | 218 | –
7 | CCCCC#Cc1cn([C@@H]2O[C@H](CO)C[C@H]2O)c2ncnc(N)c12 [FH9611, 4-amino-5-hex-1-yn-N7-(3′-deoxy-β-D-ribfuranosyl)-pyrrolo[2,3-d]pyrimidine] | 0.32 | 0.06 | > 64 | > 64 | 9.7 | 161 to 163 | –
8 | CCCC#Cc1cn([C@@H]2O[C@H](CO)C[C@H]2O)c2ncnc(N)c12 [FH9610, 4-amino-5-pent-1-yn-N7-(3′-deoxy-β-D-ribfuranosyl)-pyrrolo[2,3-d]pyrimidine] | 0.32 | 0.04 | > 64 | > 64 | 4.1 | 127 to 129 | –
9 | Nc1ncnc2c1c(C(F)(F)F)cn2[C@@H]1O[C@H](CO)C[C@H]1O [FH9526, 4-amino-5-trifluoromethyl-N7-(3′-deoxy-β-D-ribofuranosyl)-pyrrolo[2,3-d]pyrimidine] | 0.94 | 1.88 | 0.66 | 0.66 | 2.33 | 167 | –
10 | Nc1ncnc2c1c(-c1ccc(F)cc1)cn2[C@@H]1O[C@H](CO)C[C@H]1O [FH10680, 4-amino-5-(4-fluorophenyl)-N7-(3′-deoxy-β-D-ribofuranosyl)-pyrrolo[2,3-d]pyrimidine] | – | – | – | > 64 | 0.64 | 186 to 187 | –
11 | COc1cc(-c2cn([C@@H]3O[C@H](CO)C[C@H]3O)c3ncnc(N)c23)ccc1Cl [FH10649, 4-amino-5-(3-methoxy-4-chlorophenyl)-N7-(3′-deoxy-β-D-ribofuranosyl)-pyrrolo[2,3-d]pyrimidine] | 2.01 | 0.54 | 17.2 | 17.2 | 0.06 | 208 | –
12 | Nc1ncnc2c1c(-c1cc(Cl)cc(Cl)c1)cn2[C@@H]1O[C@H](CO)C[C@H]1O [FH10642, 4-amino-5-(3,5-dichlorophenyl)-N7-(3′-deoxy-β-D-ribofuranosyl)-pyrrolo[2,3-d]pyrimidine] | 7.7 | 5.45 | 30.2 | 30.2 | 0.55 | 211 | –
13 | Nc1ncnc2c1c(CCc1ccccc1)cn2[C@@H]1O[C@H](CO)C[C@H]1O [FH10661, 4-amino-5-(phenylethyl)-N7-(3′-deoxy-β-D-ribfuranosyl)-pyrrolo[2,3-d]pyrimidine] | 8.26 | 0.67 | > 64 | > 64 | > 64 | 76 | –
14 | Nc1ncnc2c1c(C#Cc1ccccc1)cn2[C@@H]1O[C@H](CO)C[C@H]1O [FH8504, 4-amino-5-phenylethynyl-N7-(3′-deoxy-β-D-ribofuranosyl)-pyrrolo[2,3-d]pyrimidine] | 0.3 | 0.12 | 9.6 | 9.6 | 3.7 | 120 | –
15 | Nc1ncnc2c1c(Cl)cn2[C@@H]1O[C@H](CO)[C@@H](O)[C@H]1O [FH3169] | – | – | – | – | – | – | EC50 (T. brucei Squib 427; Table 4, average of 2-6 independent determinations, read-out: T.b. brucei EC50): 1.33 µM; EC50 ([1]; Table 4, average of 2-6 independent determinations, read-out: T.b. rhod. EC50): 0.12 µM; EC50 (MRC-5 fibroblasts): 33.4 µM; EC50 ([3]; Table 5, average of 2-4 independent replicates): 0.52 µM
16 | C[C@@H]1C[C@@H](O)[C@H](n2cc(Br)c3c(N)ncnc32)O1 [FH8492, 4-amino-5-bromo-N7-(3′-5′-dideoxy-β-D-ribofuranosyl)-pyrrolo[2,3-d]pyrimidine] | – | – | – | – | – | – | EC50 (T. brucei Squib 427; [7]): 33.5 µM; EC50 [1, 8]: 20.1 µM; EC50 (MRC-5 fibroblasts): 10.2 µM; EC50 [3, 9]: 12 µM
17 | Nc1ncnc2c1c(-c1ccc(Cl)c(F)c1)cn2[C@@H]1O[C@H](CO)C[C@H]1O [FH10683, 4-amino-5-(3-fluoro-4-chlorophenyl)-N7-(3′-deoxy-β-D-ribofuranosyl)-pyrrolo[2,3-d]pyrimidine] | – | – | – | 18.6 | 0.07 | 206 | –
18 | O=c1[nH]cnc2c1c(Br)cn2[C@@H]1O[C@H](CO)C[C@H]1O [FH8500, 4-oxo-5-bromo-N7-(3′-deoxy-β-D-ribfuranosyl)-pyrrolo[2,3-d]pyrimidine] | – | – | – | – | – | – | EC50 (T. brucei Squib 427; [7]): 8.09 µM; EC50 [1, 8]: 2.26 µM; EC50 (MRC-5 fibroblasts): > 64 µM; EC50 [3, 9]: > 64 µM
19 | OC[C@@H]1C[C@@H](O)[C@H](n2cc(Br)c3c(Cl)ccnc32)O1 [FH9540, 3-bromo-4-chloro-N1-(3′-deoxy-β-D-ribofuranosyl)-pyrrolo[2,3-b]pyridine] | – | – | – | – | – | – | EC50 (T. brucei Squib 427; [7]): 14.8 µM; EC50 [1, 8]: 28.9 µM; EC50 (MRC-5 fibroblasts): 27.2 µM; EC50 [3]: 15 µM
20 | Nc1ncnc2c1ccn2[C@@H]1O[C@H](COS(N)(=O)=O)C[C@H]1O [FH9608, 4-amino-N7-(3′-deoxy-5′-O-sulfamoyl-β-D-ribofuranosyl)-pyrrolo[2,3-d]pyrimidine] | – | – | – | – | – | – | EC50 (T. brucei Squib 427; [7]): 4.6 µM; EC50 [1, 8]: 0.87 µM; EC50 (MRC-5 fibroblasts): 5.09 µM; EC50 [3, 9]: 9.91 µM
21 | Nc1ncnc2c1c(-c1ccc(F)c(Cl)c1)cn2[C@@H]1O[C@H](CO)C[C@H]1O [FH10681, 4-amino-5-(3-chloro-4-fluorophenyl)-N7-(3′-deoxy-β-D-ribofuranosyl)-pyrrolo[2,3-d]pyrimidine] | – | – | – | 45.5 | 0.3 | 178 | –
